The subject of the test is splenocytes from BALB/c mice infected with tk--HSV-2. Description: IFN-γ ELISPOT, splenocytes after intravaginal tk--HSV-2 infection. The test is classed as cell-based. As to conditions: splenocytes from individual BALB/c mice after non-lethal intravaginal infection with live attenuated HSV-2, single peptides at 1 μg mL^-1 (Concanavalin A 2.5 μg mL^-1), means of duplicates.
Consider Concanavalin A [reference compound], for which the “SFU per 10^6 responder cells, tk--HSV-2 infected mice” value (from here on “SFU per 10^6 responder cells”) is reported as “TNTC ^‡”.
As for HTALATVTLKYAL [UL47 509-521], the “SFU per 10^6 responder cells” value was 25 SFU per 10^6 responder cells.
In the case of LLYWPGVRALLGR [UL47 369-381], the “SFU per 10^6 responder cells” value was 21 SFU per 10^6 responder cells.
As to YAGRMTYIATGAL [UL47 389-401], the “SFU per 10^6 responder cells” value is 43 SFU per 10^6 responder cells.
